Source: patent publication US12415844B2, “BCMA specific VCAR compositions and methods for use” (Poseida Therapeutics, Inc., priority 2017, dated 2025)
Where two headings read alike, the source gives them in different places.

Experiments:
[1] = cited from earlier work
cells [2] = settings: cited from earlier work
cells [3] = assay: AP1903 amount needed in vitro for effective signaling of cells; assay type: cell-based; settings: equates to 10-100 nM
Experimental: The fixed dose of AP1903 for injection used, for example, may be 0.4 mg/kg intravenously infused over 2 hours. The amount of AP1903 needed in vitro for effective signaling of cells is 10-100 nM (1600 Da MW). This equates to […] or […]. Doses up to 1 mg/kg were well tolerated in the Phase I study of AP1903 described above. Therefore, 0.4 mg/kg may be a safe and effective dose of AP1903 for this Phase I study in combination with the therapeutic cells.

CC[C@H](C(=O)N1CCCC[C@H]1C(=O)O[C@H](CCc1ccc(OC)c(OC)c1)c1cccc(OCC(=O)NCCNC(=O)COc2cccc([C@@H](CCc3ccc(OC)c(OC)c3)OC(=O)[C@@H]3CCCCN3C(=O)[C@@H](CC)c3cc(OC)c(OC)c(OC)c3)c2)c1)c1cc(OC)c(OC)c(OC)c1 (relative stereo) [AP1903, 2-Piperidinecarboxylic acid, 1-[(2S)-1-oxo-2-(3,4,5-trimethoxyphenyl)butyl]-, 1,2-ethanediylbis[imino(2-oxo-2,1-ethanediyl)oxy-3,1-phenylene[(1R)-3-(3,4-dimethoxyphenyl)propylidene]]ester, [2S-[1(R*),2R*[S*[S*[1(R*),2R*]]]]]-(9C1)]
plasma levels versus dose ([1]; 0.01-1.0 mg/kg): directly proportional to dose | plasma level as % of maximal concentration ([1]; 0.5 hours post-dose): approximately 18% | plasma level as % of maximal concentration ([1]; 2 hours post-dose): ~7% | plasma level as % of maximal concentration ([1]; 10 hours post-dose): ~1% | well tolerated doses ([1]; Phase I study): up to 1 mg/kg | safety and tolerability ([1]; dose levels 0.01, 0.05, 0.1, 0.5 and 1.0 mg/kg IV over 2 hours): safe and well tolerated at all dose levels | pharmacokinetic profile ([1]; healthy volunteers): favorable pharmacokinetic profile | mean Cmax ([1]; single doses 0.01-1.0 mg/kg infused IV over 2 hours, healthy volunteers, plasma): 10 to 1275 ng/mL | amount needed in vitro for effective signaling of cells (cells [2]): 10 to 100 nM | amount needed for effective signaling, converted (1600 Da MW) (cells [3]): 16 to 160 µg/L
